Results taken from patent publication US20230295234A1, “ANTIMICROBIAL PEPTIDOMIMETICS” (SPEXIS AG, priority 2020, published 2023).
Peptide text beside a SMILES is read from it.

Legend:
[1] = test system: human red blood cells (hRBC); test: Hemolysis of human red blood cells; type: cell-based; conditions: red cells of human, 1 h
Procedure, shortened: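 PBS-washed human red blood cells (20% v/v) were incubated with peptide at 200 μg/mL for 1 h at 37 °C with shaking. Supernatant OD was read at 540 nm after 8-fold dilution. Hemolysis is expressed as percent of the water control.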

[2] = test system: Escherichia coli ATCC 25922; conditions: ATCC 25922
Procedure, shortened: (§1)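 Two-fold serial dilutions of peptide, in water with polysorbate 80 (0.002% final), met bacteria adjusted to 0.5 McFarland then diluted to about 5×10^5 CFU/mL. Medium was cation-adjusted Mueller-Hinton II broth; peptide stocks were 1 mg/mL in sterile water.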

[3] = test system: Escherichia coli MCR-1 Af 45; conditions: Mueller-Hinton broth II, 18-20 hours at 35° C.
Procedure, shortened: as §1

[4] = test system: Klebsiella pneumoniae SSI3010; conditions: SSI3010
Procedure, shortened: as §1

Row | SMILES | Hemolysis at 0.2 g/L [1] [%] | Escherichia coli ATCC 25922 MIC [2] [µg/mL] | Escherichia coli MCR-1 Af 45 MIC [3] [µg/mL] | Klebsiella pneumoniae SSI3010 MIC [4] [µg/mL]
1 | CC[C@H](C)[C@H](NC(=O)[C@@H]1C[C@@H](O)CN1C(=O)[C@@H](N)C(C)C)C(=O)N[C@H](C(=O)N[C@@H](Cc1c[nH]c2ccccc12)C(=O)N[C@@H]1C(=O)N[C@@H](CC(N)=O)C(=O)N[C@@H](CCCNC(=N)N)C(=O)N[C@@H](CCN)C(=O)N[C@@H]([C@@H](C)O)C(=O)N[C@H](CCN)C(=O)N[C@@H](CCCCN)C(=O)N[C@H](C(=O)N[C@@H](CCN)C(=O)N[C@@H](CCCNC(=N)N)C(=O)N[C@@H](Cc2ccc(O)cc2)C(=O)O)CSSC1(C)C)[C@@H](C)O [Example 160] (HELM PEPTIDE1{V.[Hyp].I.T.W.[Pen].N.R.[Dab].T.[NCC[C@@H](N[*:1])C(=O)[*:2]].K.C.[Dab].R.Y}$PEPTIDE1,PEPTIDE1,6:R3-13:R3$$$V2.0) | 0 | 0.25 | 0.25 | 0.5
2 | CC[C@H](C)[C@H](NC(=O)[C@@H]1C[C@@H](O)CN1C(=O)[C@@H](N)C(C)C)C(=O)N[C@H](C(=O)N[C@@H](Cc1ccc(O)cc1)C(=O)N[C@@H]1C(=O)N[C@@H](C)C(=O)N[C@@H](CCCNC(=N)N)C(=O)N[C@@H](CCN)C(=O)N[C@@H]([C@@H](C)O)C(=O)N[C@H](CCN)C(=O)N[C@@H](CCCCN)C(=O)N[C@H](C(=O)N[C@@H](CCN)C(=O)N[C@@H](CCCNC(=N)N)C(=O)N[C@@H](Cc2ccc(O)cc2)C(=O)O)CSSC1(C)C)[C@@H](C)O [Example 161] (HELM PEPTIDE1{V.[Hyp].I.T.Y.[Pen].A.R.[Dab].T.[NCC[C@@H](N[*:1])C(=O)[*:2]].K.C.[Dab].R.Y}$PEPTIDE1,PEPTIDE1,6:R3-13:R3$$$V2.0) | 0 | 0.25 | 0.125 | 0.5
3 | CC[C@H](C)[C@H](NC(=O)[C@@H]1C[C@@H](O)CN1C(=O)[C@@H](N)C(C)C)C(=O)N[C@H](C(=O)N[C@@H](Cc1ccc(O)cc1)C(=O)N[C@@H]1C(=O)N[C@@H](CC(C)C)C(=O)N[C@@H](CCCNC(=N)N)C(=O)N[C@@H](CCN)C(=O)N[C@@H]([C@@H](C)O)C(=O)N[C@H](CCN)C(=O)N[C@@H](CCCCN)C(=O)N[C@H](C(=O)N[C@@H](CCN)C(=O)N[C@@H](CCCNC(=N)N)C(=O)N[C@@H](Cc2ccc(O)cc2)C(=O)O)CSSC1(C)C)[C@@H](C)O [Example 162] (HELM PEPTIDE1{V.[Hyp].I.T.Y.[Pen].L.R.[Dab].T.[NCC[C@@H](N[*:1])C(=O)[*:2]].K.C.[Dab].R.Y}$PEPTIDE1,PEPTIDE1,6:R3-13:R3$$$V2.0) | 0 | 0.25 | 0.125 | 0.25
4 | CC[C@H](C)[C@@H]1NC(=O)[C@@H](NC(=O)[C@H](Cc2ccc(O)cc2)NC(=O)[C@@H](NC(=O)[C@@H](NC(=O)[C@@H]2C[C@@H](O)CN2C(=O)[C@@H](N)C(C)C)[C@@H](C)CC)[C@@H](C)O)C(C)(C)SSC[C@@H](C(=O)N[C@@H](CCN)C(=O)N[C@@H](CCCNC(=N)N)C(=O)N[C@@H](Cc2ccc(O)cc2)C(=O)O)NC(=O)[C@H](CCCCN)NC(=O)[C@@H](CCN)NC(=O)[C@H]([C@@H](C)O)NC(=O)[C@H](CCN)NC(=O)[C@H](CCCNC(=N)N)NC1=O [Example 163] (HELM PEPTIDE1{V.[Hyp].I.T.Y.[Pen].I.R.[Dab].T.[NCC[C@@H](N[*:1])C(=O)[*:2]].K.C.[Dab].R.Y}$PEPTIDE1,PEPTIDE1,6:R3-13:R3$$$V2.0) | 0 | 0.125 | 0.125 | 0.5
5 | CC[C@H](C)[C@H](NC(=O)[C@@H]1C[C@@H](O)CN1C(=O)[C@@H](N)C(C)C)C(=O)N[C@H](C(=O)N[C@@H](Cc1ccc(O)cc1)C(=O)N[C@@H]1C(=O)N[C@@H](CO)C(=O)N[C@@H](CCCNC(=N)N)C(=O)N[C@@H](CCN)C(=O)N[C@@H]([C@@H](C)O)C(=O)N[C@H](CCN)C(=O)N[C@@H](CCCCN)C(=O)N[C@H](C(=O)N[C@@H](CCN)C(=O)N[C@@H](CCCNC(=N)N)C(=O)N[C@@H](Cc2ccc(O)cc2)C(=O)O)CSSC1(C)C)[C@@H](C)O [Example 164] (HELM PEPTIDE1{V.[Hyp].I.T.Y.[Pen].S.R.[Dab].T.[NCC[C@@H](N[*:1])C(=O)[*:2]].K.C.[Dab].R.Y}$PEPTIDE1,PEPTIDE1,6:R3-13:R3$$$V2.0) | 0 | 0.125 | 0.25 | 0.25
6 | CC[C@H](C)[C@H](NC(=O)[C@@H]1C[C@@H](O)CN1C(=O)[C@@H](N)C(C)C)C(=O)N[C@H](C(=O)N[C@@H](Cc1ccc(O)cc1)C(=O)N[C@@H]1C(=O)N[C@@H]([C@@H](C)O)C(=O)N[C@@H](CCCNC(=N)N)C(=O)N[C@@H](CCN)C(=O)N[C@@H]([C@@H](C)O)C(=O)N[C@H](CCN)C(=O)N[C@@H](CCCCN)C(=O)N[C@H](C(=O)N[C@@H](CCN)C(=O)N[C@@H](CCCNC(=N)N)C(=O)N[C@@H](Cc2ccc(O)cc2)C(=O)O)CSSC1(C)C)[C@@H](C)O [Example 165] (HELM PEPTIDE1{V.[Hyp].I.T.Y.[Pen].T.R.[Dab].T.[NCC[C@@H](N[*:1])C(=O)[*:2]].K.C.[Dab].R.Y}$PEPTIDE1,PEPTIDE1,6:R3-13:R3$$$V2.0) | 0 | 0.125 | 0.125 | 0.5
7 | CC[C@H](C)[C@H](NC(=O)[C@@H]1C[C@@H](O)CN1C(=O)[C@@H](N)C(C)C)C(=O)N[C@H](C(=O)N[C@@H](Cc1ccc(O)cc1)C(=O)N[C@@H]1C(=O)N[C@@H](CCCCN)C(=O)N[C@@H](CCCNC(=N)N)C(=O)N[C@@H](CCN)C(=O)N[C@@H]([C@@H](C)O)C(=O)N[C@H](CCN)C(=O)N[C@@H](CCCCN)C(=O)N[C@H](C(=O)N[C@@H](CCN)C(=O)N[C@@H](CCCNC(=N)N)C(=O)N[C@@H](Cc2ccc(O)cc2)C(=O)O)CSSC1(C)C)[C@@H](C)O [Example 166] (HELM PEPTIDE1{V.[Hyp].I.T.Y.[Pen].K.R.[Dab].T.[NCC[C@@H](N[*:1])C(=O)[*:2]].K.C.[Dab].R.Y}$PEPTIDE1,PEPTIDE1,6:R3-13:R3$$$V2.0) | 0 | 0.25 | 0.125 | 0.5
8 | CC[C@H](C)[C@H](NC(=O)[C@@H]1C[C@@H](O)CN1C(=O)[C@@H](N)C(C)C)C(=O)N[C@H](C(=O)N[C@@H](Cc1ccc(O)cc1)C(=O)N[C@@H]1C(=O)N[C@@H](CC(N)=O)C(=O)N[C@@H](CCCNC(=N)N)C(=O)N[C@@H](CCCCN)C(=O)N[C@@H]([C@@H](C)O)C(=O)N[C@H](CCN)C(=O)N[C@@H](CCCCN)C(=O)N[C@H](C(=O)N[C@@H](CCN)C(=O)N[C@@H](CCCNC(=N)N)C(=O)N[C@@H](Cc2ccc(O)cc2)C(=O)O)CSSC1(C)C)[C@@H](C)O [Example 167] (HELM PEPTIDE1{V.[Hyp].I.T.Y.[Pen].N.R.K.T.[NCC[C@@H](N[*:1])C(=O)[*:2]].K.C.[Dab].R.Y}$PEPTIDE1,PEPTIDE1,6:R3-13:R3$$$V2.0) | 0 | 0.25 | 0.125 | 0.5
9 | CC[C@H](C)[C@H](NC(=O)[C@@H]1C[C@@H](O)CN1C(=O)[C@@H](N)C(C)C)C(=O)N[C@H](C(=O)N[C@@H](Cc1ccc(O)cc1)C(=O)N[C@@H]1C(=O)N[C@@H](CC(N)=O)C(=O)N[C@@H](CCCNC(=N)N)C(=O)N[C@@H](CCCNC(=N)N)C(=O)N[C@@H]([C@@H](C)O)C(=O)N[C@H](CCN)C(=O)N[C@@H](CCCCN)C(=O)N[C@H](C(=O)N[C@@H](CCN)C(=O)N[C@@H](CCCNC(=N)N)C(=O)N[C@@H](Cc2ccc(O)cc2)C(=O)O)CSSC1(C)C)[C@@H](C)O [Example 168] (HELM PEPTIDE1{V.[Hyp].I.T.Y.[Pen].N.R.R.T.[NCC[C@@H](N[*:1])C(=O)[*:2]].K.C.[Dab].R.Y}$PEPTIDE1,PEPTIDE1,6:R3-13:R3$$$V2.0) | 0 | 0.125 | 0.5 | 0.25
10 | CC[C@H](C)[C@@H]1NC(=O)[C@@H](CCN)NC(=O)[C@H]([C@@H](C)O)NC(=O)[C@H](CCN)NC(=O)[C@H](CCCNC(=N)N)NC(=O)[C@H](CC(N)=O)NC(=O)[C@@H](NC(=O)[C@H](Cc2ccc(O)cc2)NC(=O)[C@@H](NC(=O)[C@@H](NC(=O)[C@@H]2C[C@@H](O)CN2C(=O)[C@@H](N)C(C)C)[C@@H](C)CC)[C@@H](C)O)C(C)(C)SSC[C@@H](C(=O)N[C@@H](CCN)C(=O)N[C@@H](CCCNC(=N)N)C(=O)N[C@@H](Cc2ccc(O)cc2)C(=O)O)NC1=O [Example 169] (HELM PEPTIDE1{V.[Hyp].I.T.Y.[Pen].N.R.[Dab].T.[NCC[C@@H](N[*:1])C(=O)[*:2]].I.C.[Dab].R.Y}$PEPTIDE1,PEPTIDE1,6:R3-13:R3$$$V2.0) | 0 | 0.5 | 0.25 | 0.5
